Measurements published in patent US20220168322A1, “NOVEL STAT3 INHIBITORS IDENTIFIED BY STRUCTURE-BASED VIRTUAL SCREENING INCORPORATING SH2 DOMAIN FLEXIBILITY” (Board of Regents, The University of Texas System, priority 2018, published 2022).
Where two headings read alike, the source gives them in different places.

Columns and labels:
G-CSF-stimulated pSTAT3 = assay: Inhibition of G-CSF-stimulated pSTAT3 in Kasumi-1 cells (Luminex, pSTAT3/GAPDH); assay type: cell-based; conditions: for % of Control Stimulated pSTAT3 / activity at 10 µM: Kasumi1 cells, single concentration of 10 μM, G-CSF 100 ng/ml, pSTAT3/GAPDH relative to DMSO treated cells; for activity at 10 µM / inhibition at 10 µM: Homo sapiens; for activity at 10 µM: Kasumi 1, read-out: % of Control Stimulated pSTAT3; for inhibition at 10 µM: Kasumi-1 cells, read-out: inhibition of G-CSF-induced pY-STAT3
Procedure: […] Total protein was assayed for pSTAT3 and GAPDH levels by Luminex. GAPDH-normalized pSTAT3 values were divided by the same for untreated cells and expressed as percentage. These values were plotted as a function of Log [M] compound, and IC50 calculated using GraphPad. Data from representative experiments from at least two repeats is shown.
Luminex bead-based assay. Luminex bead-based assays were used to determine levels of pSTAT3, pSTAT1, pSTAT5, and GAPDH, as described (Bharadwaj et al., 2015). […]

STAT3 (aa 127-722) = biological target: T1, STAT3 (aa 127-722) (Homo sapiens, UniProt P40763); assay: SPR assay of STAT3 binding to immobilized EGFR pY1068 phosphododecapeptide; conditions: for % of max binding at 10 μm: pEGFRp-STAT3 binding (SPR) at pH 8, compound 10 μm; for % of max binding at 100 μm: pEGFRp-STAT3 binding (SPR) at pH 8, compound 100 μm; for inhibition at 10 µM / inhibition at 100 µM: SPR, read-out: inhibition of STAT3 binding to EGFR pY-peptide
T1 construct: STAT3 (aa 127-722) at a concentration of 200 nM
T1 sequence (P40763 127-722 isoform P40763-3 limits assumed, species assumed): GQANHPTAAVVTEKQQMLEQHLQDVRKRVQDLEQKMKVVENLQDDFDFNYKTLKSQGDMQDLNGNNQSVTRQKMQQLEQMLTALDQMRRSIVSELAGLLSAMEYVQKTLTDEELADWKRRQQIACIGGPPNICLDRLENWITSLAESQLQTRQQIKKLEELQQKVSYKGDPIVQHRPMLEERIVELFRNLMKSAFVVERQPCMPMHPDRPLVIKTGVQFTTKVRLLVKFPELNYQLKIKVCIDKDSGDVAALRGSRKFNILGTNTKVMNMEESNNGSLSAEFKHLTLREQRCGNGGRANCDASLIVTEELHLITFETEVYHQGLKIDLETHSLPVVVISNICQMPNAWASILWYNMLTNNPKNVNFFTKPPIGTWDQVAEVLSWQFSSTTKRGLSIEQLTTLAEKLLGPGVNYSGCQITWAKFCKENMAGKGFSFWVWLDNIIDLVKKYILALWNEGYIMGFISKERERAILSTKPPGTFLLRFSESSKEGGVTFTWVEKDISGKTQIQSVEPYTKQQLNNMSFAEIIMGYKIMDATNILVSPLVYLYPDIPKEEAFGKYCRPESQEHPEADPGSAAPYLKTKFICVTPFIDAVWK
Procedure: Surface plasmon resonance (SPR) assay of STAT3 binding pY-peptide. STAT3 (aa 127-722) at a concentration of 200 nM in 20 mM Tris buffer (pH 8) was pre-incubated without or with compounds prior to injection onto an SA chip immobilized with phosphorylated and control non-phosphorylated biotinylated EGFR derived dodecapeptides based on sequence surrounding Y1068 (Shao et al., 2004), on a Biacore 3000 biosensor (Biacore inc., Piscataway N.J.) and analyzed as described (Bharadwaj et al., 2016).
Surface Plasmon Resonance (SPR) was performed on the 24 compounds to determine their ability to block binding of purified STAT3 to an immobilized phosphododecapeptide based on EGFR Y1068 (EGFR pY-peptide), as described (Xu et al., 2009).

MDA-MB-231 cells = assay: Anchorage-independent and dependent cell growth (MTT), MDA-MB-231; assay type: cell-based; conditions: NA = No Activity
Procedure: (§1) MDA-MB-231 cells were cultured for 48 hrs in complete DMEM with 10% FBS±compound (0/0.1/0.3/1/3/10/100 μM) in cell-culture-treated plates and viable cells quantitated using MTT. Relative % viability (viability after any treatment÷viability of untreated cells×100) was plotted as a function of Log [M] compound, and IC50 values calculated using GraphPad.
as §1, with “72” for “48”, “cell-culture-treated ultra-low attachment 96-well” for “cell-culture-treated”
(§2) Anchorage-independent and dependent cell growth. Cells were cultured in triplicates in complete DMEM±drug, in ultra-low attachment 96 well plates for 72 hrs or cell-culture treated plates for 48 hrs and viable cells were quantitated using MTT. Optical density (OD) was measured at 590 nm using a 96-well multi-scanner (Synergy H1 microplate reader, BioTek Inc, VT, USA). Relative % viability (viability after any treatment÷viability of untreated cells×100) was plotted along Y-axis. At least 2 replicates experiments were performed and were used for IC50 calculation using GraphPad software.

MDA-MB-468 cells = assay: Anchorage-independent and dependent cell growth (MTT), MDA-MB-468; assay type: cell-based; conditions: NA = No Activity
Procedure: as §1, with “MDA-MB-468” for “MDA-MB-231”
as §1, with “MDA-MB-468” for “MDA-MB-231”, “72” for “48”, “cell-culture-treated ultra-low attachment 96-well” for “cell-culture-treated”, “treatment viability” for “treatment÷viability”
as §2

[1] = Homo sapiens, MDA-MB-231, 72 h, anchorage independent, ultra-low attachment plates, 72 hrs, read-out: Growth AI IC50 231
[2] = Homo sapiens, MDA-MB-468, 48 h, anchorage dependent, cell-culture treated plates, 48 hrs, read-out: Growth AD IC50 468
[3] = Homo sapiens, MDA-MB-468, 72 h, anchorage independent, ultra-low attachment plates, 72 hrs, read-out: Growth AI IC50 468
[4] = anchorage dependent, cell-culture treated plates, 48 hrs, read-out: Growth AD IC50 468
[5] = Homo sapiens, MDA-MB-231, 48 h, anchorage dependent, cell-culture treated plates, 48 hrs, read-out: Growth AD IC50 231
[6] = anchorage dependent, cell-culture treated plates, 48 hrs, read-out: Growth AD IC50 231

| Compound | % of Control Stimulated pSTAT3 (G-CSF-stimulated pSTAT3) | % of max binding at 10 μm (STAT3 (aa 127-722)) | % of max binding at 100 μm (STAT3 (aa 127-722)) | activity at 10 µM (G-CSF-stimulated pSTAT3) | inhibition at 10 µM (G-CSF-stimulated pSTAT3) | inhibition at 10 µM (STAT3 (aa 127-722)) | inhibition at 100 µM (STAT3 (aa 127-722)) | IC50 (MDA-MB-231 cells; [1]) | IC50 (MDA-MB-468 cells; [2]) | IC50 (MDA-MB-468 cells; [3]) | IC50 (MDA-MB-468 cells; [4]) | IC50 (MDA-MB-231 cells; [5]) | IC50 (MDA-MB-231 cells; [6]) |
| --- | --- | --- | --- | --- | --- | --- | --- | --- | --- | --- | --- | --- | --- |
| CCOc1ccc(N(C(C)C(=O)Nc2cccc(Cl)c2C)S(C)(=O)=O)cc1 (stereo not drawn) [SPEC-86] | 5% | 120.1% | 59.1% | – | – | – | – | – | – | – | – | – | – |
| CCn1c(CNc2ccc(Cl)cc2)nnc1SC(C)C(=O)Nc1ccc(C(C)=O)cc1 (stereo not drawn) [SPEC-90] | 4% | 132.2% | 59.5% | – | – | – | – | – | – | – | – | – | – |
| CC(=O)Nc1nc(C)c(-c2csc(Nc3ccccc3)n2)s1 [SPEC-93, N-(2-aniline-4′-methyl-4,5′-bi-1,3-thiazol-2′-yl)acetamide] | – | 116.8% | 28.3% | 0% | 20 to 80% | 29 to 71% | 67 to 93% | 15.7 ± 1.3 µM | – | – | – | – | – |
| COc1cc(/C=C2/SC(=O)NC2=O)ccc1OCc1ccc(Cl)cc1Cl [SPEC-98] | – | 70.4% | 7.8% | 20% | 20 to 80% | 29 to 71% | 67 to 93% | – | 25.6 to 65.2 µM | 64.1 ± 3.1 µM | 32.5 ± 3.7 µM | 25.6 to 65.2 µM | 25.6 ± 3.9 µM |
| COC(=O)c1ccc(N2C(=O)CC(SC(=NCCc3ccc(S(N)(=O)=O)cc3)Nc3ccccc3)C2=O)cc1 (stereo not drawn) [SPEC-100] | 42% | 70.8% | 15.4% | – | – | – | – | – | – | – | – | – | – |
| CC(=O)c1ccc(NC(=O)C2C3CC/C=C\CCC32)cc1 (stereo not drawn) [SPEC-102] | 38% | 73.7% | 21.4% | – | – | – | – | – | – | – | – | – | – |
| CC1(C)CC(=O)c2sc(NC(=O)CSc3nnc(SCC(=O)Nc4nc5c(s4)C(=O)CC(C)(C)C5)s3)nc2C1 [SPEC-103] | 46% | 76.0% | 10.4% | – | – | – | – | – | – | – | – | – | – |
| Cc1cc(NS(=O)(=O)c2ccc(NC(=O)COc3ccc(C(C)(C)c4ccccc4)cc3)cc2)nc(C)n1 [SPEC-106, N-(4-{[(2,6-dimethyl-4-pyrimidinyl)amino]sulfonyl}phenyl)-2-[4-(1-methyl-1-phenylethyl)phenoxy]acetamide] | – | 68.9% | 20.4% | 1% | 20 to 80% | 29 to 71% | 67 to 93% | 38.9 µM | 25.6 to 65.2 µM | 34.9 ± 1.3 µM | 44.7 µM | 25.6 to 65.2 µM | 39 µM |
| NC(=O)CCN1CCN(CCOC2Cc3cc(Cl)ccc3Sc3ccccc32)CC1 (stereo not drawn) [SPEC-109] | 1% | 97.1% | 82.3% | – | – | – | – | – | – | – | – | – | – |
